# Results reported in patent US20260242340A1, “COMPOUNDS AND METHODS FOR TREATING PROTEIN AGGREGATION DISEASES” (ACELOT, INC., priority 2023, published 2026).
# Columns and labels:
# [1] = target: TDP-43 peptide (amino acids 307-319) (Homo sapiens, UniProt Q13148); test: TDP-43 thioflavin T assay; format: biochemical; details: ThT RFU at 15 hours; 100% = TDP-43 + DMSO
# Procedure: The effect of compounds on fibril formation by TDP-43 peptide (amino acids 307-319) was screened using a thioflavin T (ThT) fluorescence assay in a 96-well plate format. The monomeric form of TDP-43 307-319 was stored in HFIP at −20° C. in 32 μL vials and then thawed on ice. After thawing a stock aliquot on ice, 16 μL of HFIP and 432 μL 100 mM ammonium acetate was added. This mix was pipetted three times. Three such prepared aliquots were combined to create a master mix. 400 μM of ThT stock was prepared by dissolving 31.8 mg ThT in 10 mL Milli-Q water to make […] stock. The 10 mM ThT stock was then diluted to 400 μM with Milli-Q water and stored at −20° C. until use. 20 μL aliquots of compounds were used as initial starting material. 98 μL of master mix was then added to each well of 96-well plate, and then 2 μL of compounds was added to each well testing a compound. The plate was spun at 4700×rpm to remove bubbles at 4° C., and then the plate measurements were collected. ThT fluorescence was measured through the bottom of the plate using 440- and 480-nm excitation and emission filters for 15 hours at 0.5-hour intervals. Each well was scanned at 5 points with a 1.25 mm distance between points. The relative fluorescence unit (RFU) at 15 hours was used to rank the percent of aggregation for all tested compounds.
# [2] = target: peptide fragment of TAR DNA-binding protein 43 (TDP-43) (Homo sapiens, UniProt Q13148); test: Ion-mobility mass spectrometry (IM-MS) of TDP-43 peptide oligomerization; format: biochemical; details: approximately 4 hours after addition of compound to aggregated peptide sample; for 6mer/hexamer peak of TDP-43 peptide (IM-MS, FIG. 2): versus control
# Excerpt: One of the assays used to determine the effectiveness of the compounds is Ion Mobility Mass Spectroscopy, or IM-MS. In this assay, a protein solution was fed into the IM-MS tube. At the entrance to the tube, an electric field ionized the proteins, propelling them into the body of the tube, where a constant electric field propelled them forward. Upon reaching the end of the tube, the ionized proteins were counted by a particle detector, which can also measure the mass/charge ratio and flight time of each particle.
# Methods: IM-MS was utilized to monitor the oligomerization of a peptide fragment of TAR DNA-binding protein 43 (TDP-43) in the presence of compounds 1 and 2 using methods as described in Laos et al ACS Chem. Neuro. 2019, 10 (9), 4112-4123; and Biochemistry 2019, 59 (4), 499-508. The accumulation of TDP-43 aggregates in the central nervous system is a common feature of many neurodegenerative diseases, such as amyotrophic lateral sclerosis, frontotemporal dementia, Alzheimer's disease, and limbic predominant age-related TDP-43 encephalopathy. The ability of IM-MS to separate TDP-43 aggregate species of a specific [m]z+ (m=mass, z=charge) that contains different [n]z+ (n=number of TDP-43 peptide molecules aggregated together) by measuring the arrival time distributions (ATDs) yields oligomeric distribution spectrographs.
# In FIG. 2, the number denoted at the top of each peak is the peptide aggregate size (e.g., 6=6 peptides aggregated together). The spectrograph designated as Control is the peptide form of TDP-43 without any protein aggregation disrupting compound added. Measurements were taken approximately 4 hours after addition of compound to aggregated peptide sample. […] The 6mer is the toxic oligomer that propagates disease and neuronal degeneration. FIG. 2 also discloses that the addition of compound 1 or compound 2 decreased the number of higher-order TDP-43 oligomers and increased the number of TDP-43 monomers and dimers.
# We conducted two types of experiments. The first was a co-incubation experiment, where we added the compounds to a fresh solution of monomeric protein, and allowed the protein to aggregate (or, ideally, not aggregate) in the presence of the compound. The second experiment was a recovery experiment, where we added our compounds to a solution of pre-aggregated protein. Co-incubation experiments allowed us to determine if the compounds can prevent initial aggregation, while recovery experiments allowed us to determine if the compounds can break up existing aggregates.
# [3] = target: toxic alpha-synuclein oligomers (Homo sapiens, UniProt P37840); test: Neuronal cell toxicity assay (MTT), alpha-synuclein oligomers; format: cell-based; details: 10 μM compound; primary rat neurons; 100% = cells without alpha-synuclein oligomers, 0% = oligomers and DMSO
# Procedure: (§1) Primary rat cortical and striatal neurons were prepared from foetuses' brain as previously described (Garcia et al., Diabetes, Obesity & Metabolism 2010, 12, 403-413; Roby et al., Food chemistry 2015, 171, 397-404; Colin et al., Biochimie 2016, 130, 178-187). Briefly, the embryos were extracted, brains were collected and dissected using a binocular magnifier. Embryonic cortical/striatal tissues were dissociated by a combination of enzymatic digestion and mechanical dissociation. The relative number of live cells in cell suspension was evaluated for each cortical and striatal neurons using Thoma cell counting chamber and Axio Scope A1 microscope (Carl Zeiss, Oberkochen, Germany). Dissociated neurons were plated (80,000 cells/well) in 48-well plates pre-coated with 15 μg/mL Poly-ornithine (Sigma), 1 μg/ml Laminin (Sigma). Cells were cultured in Neurobasal medium (Invitrogen, Paris, France) serum free of and supplemented with 2% (v/v) of B-27 Supplement (Invitrogen). […]
# (§2) To induce neuronal toxicity, neurotoxin (oligomeric forms of Aβ, Tau and alpha-synuclein at 0.1-5 μM) were used. […] Cell viability was evaluated by a 3-(4,5-dimethylthiazol-2-yl)-2,5-diphenyl-2H-tetrazolium bromide (MTT) assay at 24-72 h post neurotoxin challenge. […] After complete solubilization of formazan, absorbance was recorded at 500 nm with a spectrophotometer (SpectraMax® i3x, Molecular Devices, San José, USA).
# toxic tau oligomers = test: Neuronal cell toxicity assay (MTT), tau oligomers; format: cell-based; details: primary rat neurons, 100% = cells without tau oligomers, 0% = tau oligomers and DMSO
# Procedure: as §1, §2
% aggregation TDP-43 ThT at 50 μM TDP-43 [1] [%],"number of TDP-43 monomers and dimers (IM-MS, FIG. 2) [2]","number of higher-order TDP-43 oligomers (IM-MS, FIG. 2) [2]","6mer/hexamer peak of TDP-43 peptide (IM-MS, FIG. 2) [2]",Compound,% rescue at 10 μM comopund from toxic alpha-synuclein oligomers [3] [%],% rescue at 10 μM compound from toxic tau oligomers (toxic tau oligomers) [%]
77.4,increased,decreased,depleted,CC(=O)Nc1ccc2c(c1)CCN(CCc1cccc(Cl)c1)C2 [Compound 1],24,–
80.7,increased,decreased,depleted,CC(=O)Nc1ccc2c(c1)CCN(CCc1ccc(F)c(Cl)c1)C2 [Compound 2],–,33.7
